# Data: US20110081315A1, “NOVEL MACROCYCLIC INHIBITORS OF HEPATITIS C VIRUS REPLICATION” (INTERMUNE, INC., priority 2009, published 2011)
# What was measured:
# NS3/NS4 complexes = NS3/NS4 complexes (Hepatitis C virus genotype 1a, UniProt P27958); experiment: NS3/NS4 inhibition assay (IC50); assay type: biochemical; settings: NS3/NS4 activity; 23° C., 25 μM NS4A peptide
# Outline: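 Enzyme IC50: NS3/NS4 complex, 23° C.; buffer Tris-HCl 50 mM pH 7.5 / glycerol 15% / DTT 10 mM / LDAO 0.6 mM / NS4A peptide 25 μM. Cellular: HCV replicon EC50.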
# hepatitis C replicon = hepatitis C replicon EC50 assay; assay type: cell-based; settings: Hepatitis C virus; hepatitis C replicon; read-out: EC50
# Outline: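 First, NS3 and NS4 are complexed; test compounds are then titrated against the complex at room temperature (23° C.) in Tris-HCl buffer, pH 7.5, supplemented with glycerol (15%), LDAO (0.6 mM), DTT (10 mM) and NS4A peptide (25 μM) to give IC50. Separately, replicon cells give EC50.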
# Sequence of NS3/NS4 complexes (P27958 1027-1657, one chain of several): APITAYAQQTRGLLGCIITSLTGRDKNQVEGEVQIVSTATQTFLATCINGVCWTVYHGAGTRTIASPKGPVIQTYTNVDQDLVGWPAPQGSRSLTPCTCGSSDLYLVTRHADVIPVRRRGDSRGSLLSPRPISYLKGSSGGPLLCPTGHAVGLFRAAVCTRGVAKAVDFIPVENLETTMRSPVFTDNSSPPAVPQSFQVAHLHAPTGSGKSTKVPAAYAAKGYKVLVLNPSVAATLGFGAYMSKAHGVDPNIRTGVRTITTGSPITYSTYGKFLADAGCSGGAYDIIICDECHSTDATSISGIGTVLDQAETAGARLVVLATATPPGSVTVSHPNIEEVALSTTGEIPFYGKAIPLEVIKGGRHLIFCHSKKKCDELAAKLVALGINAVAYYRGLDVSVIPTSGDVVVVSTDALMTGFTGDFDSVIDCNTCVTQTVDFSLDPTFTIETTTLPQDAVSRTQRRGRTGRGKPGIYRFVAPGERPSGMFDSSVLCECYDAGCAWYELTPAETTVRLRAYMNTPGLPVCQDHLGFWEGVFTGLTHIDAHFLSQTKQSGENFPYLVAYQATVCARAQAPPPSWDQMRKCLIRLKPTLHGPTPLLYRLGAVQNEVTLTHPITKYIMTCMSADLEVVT
Compound,IC50 (NS3/NS4 complexes) [nM],EC50 (hepatitis C replicon) [nM]
CC(C)n1c(O[C@@H]2C[C@H]3C(=O)N[C@]4(C(=O)NS(=O)(=O)N(C)C)C[C@H]4/C=C\CCCCC[C@H](NC(=O)OC(C)(C)C)C(=O)N3C2)nc2c(NC(N)=O)cccc21 [Compound 1425],< 10,10 to 100
CNC(=O)Nc1cccc2c1nc(O[C@@H]1C[C@H]3C(=O)N[C@]4(C(=O)NS(=O)(=O)N(C)C)C[C@H]4/C=C\CCCCC[C@H](NC(=O)OC(C)(C)C)C(=O)N3C1)n2C(C)C [Compound 1426],< 10,10 to 100
CCOC(=O)Nc1cccc2c1nc(O[C@@H]1C[C@H]3C(=O)N[C@]4(C(=O)NS(=O)(=O)N(C)C)C[C@H]4/C=C\CCCCC[C@H](NC(=O)OC(C)(C)C)C(=O)N3C1)n2C(C)C [Compound 1427],< 10,< 10
CC(C)n1c(O[C@@H]2C[C@H]3C(=O)N[C@]4(C(=O)NS(=O)(=O)N(C)C)C[C@H]4/C=C\CCCCC[C@H](NC(=O)OC(C)(C)C)C(=O)N3C2)nc2c(NC(=O)OCc3ccccc3)cccc21 [Compound 1428],< 10,< 10
CC(C)n1c(O[C@@H]2C[C@H]3C(=O)N[C@]4(C(=O)NS(=O)(=O)N(C)C)C[C@H]4/C=C\CCCCC[C@H](NC(=O)OC(C)(C)C)C(=O)N3C2)nc2c(NC(=O)OCCc3ccccc3)cccc21 [Compound 1429],< 10,< 10
CCn1c(O[C@@H]2C[C@H]3C(=O)N[C@]4(C(=O)NS(=O)(=O)N(C)C)C[C@H]4/C=C\CCCCC[C@H](NC(=O)OC(C)(C)C)C(=O)N3C2)nc2c(-c3nc(C(C)C)cs3)cccc21 [Compound 1430],< 10,10 to 100
CCn1c(O[C@@H]2C[C@H]3C(=O)N[C@]4(C(=O)NS(=O)(=O)N(C)C)C[C@H]4/C=C\CCCCC[C@H](NC(=O)OC(C)(C)C)C(=O)N3C2)nc2c(-c3nc(-c4ccccc4)cs3)cccc21 [Compound 1431],< 10,10 to 100
CCn1c(O[C@@H]2C[C@H]3C(=O)N[C@]4(C(=O)NS(=O)(=O)N(C)C)C[C@H]4/C=C\CCCCC[C@H](NC(=O)OC(C)(C)C)C(=O)N3C2)nc2c(-c3nc(C(C)C)c(C)s3)cccc21 [Compound 1432],< 10,10 to 100
CC(C)c1csc(-c2cccc3c2nc(O[C@@H]2C[C@H]4C(=O)N[C@]5(C(=O)NS(=O)(=O)N(C)C)C[C@H]5/C=C\CCCCC[C@H](NC(=O)OC(C)(C)C)C(=O)N4C2)n3C(C)C)n1 [Compound 1433],< 10,< 10
CC(C)n1c(O[C@@H]2C[C@H]3C(=O)N[C@]4(C(=O)NS(=O)(=O)C5CC5)C[C@H]4/C=C\CCCCC[C@H](NC(=O)OC(C)(C)C)C(=O)N3C2)nc2c(-c3nc(C4CCCC4)cs3)cccc21 [Compound 1434],< 10,< 10
CC(C)c1coc(-c2cccc3c2nc(O[C@@H]2C[C@H]4C(=O)N[C@]5(C(=O)NS(=O)(=O)N(C)C)C[C@H]5/C=C\CCCCC[C@H](NC(=O)OC(C)(C)C)C(=O)N4C2)n3C(C)C)n1 [Compound 1435],< 10,< 10
Cc1cc(-c2nc(C(C)C)cs2)c2nc(O[C@@H]3C[C@H]4C(=O)N[C@]5(C(=O)NS(=O)(=O)N(C)C)C[C@H]5/C=C\CCCCC[C@H](NC(=O)OC(C)(C)C)C(=O)N4C3)n(C(C)C)c2c1 [Compound 1436],< 10,10 to 100
CC1(S(=O)(=O)NC(=O)[C@@]23C[C@H]2/C=C\CCCCC[C@H](Nc2ccccc2)C(=O)N2C[C@H](n4nc5ccccc5n4)C[C@H]2C(=O)N3)CC1 [Compound 1501],10 to 100,> 100
CC1(S(=O)(=O)NC(=O)[C@@]23C[C@H]2/C=C\CCCCC[C@H](Nc2ccccc2)C(=O)N2C[C@H](n4nnc5ccccc54)C[C@H]2C(=O)N3)CC1 [Compound 1502],< 10,> 100
CC1(S(=O)(=O)NC(=O)[C@@]23C[C@H]2/C=C\CCCCC[C@H](Nc2ccccc2)C(=O)N2C[C@H](n4ncc(-c5ccccc5)n4)C[C@H]2C(=O)N3)CC1 [Compound 1503],< 10,> 100
CC1(S(=O)(=O)NC(=O)[C@@]23C[C@H]2/C=C\CCCCC[C@H](Nc2ccccc2)C(=O)N2C[C@H](n4cc(-c5ccccc5)nn4)C[C@H]2C(=O)N3)CC1 [Compound 1504],10 to 100,> 100
CC1(S(=O)(=O)NC(=O)[C@@]23C[C@H]2/C=C\CCCCC[C@H](Nc2ccccc2)C(=O)N2C[C@H](n4nc(Br)c(-c5ccccc5)n4)C[C@H]2C(=O)N3)CC1 [Compound 1505],< 10,> 100
COc1ccc(-c2nn([C@@H]3C[C@H]4C(=O)N[C@]5(C(=O)NS(=O)(=O)C6(C)CC6)C[C@H]5/C=C\CCCCC[C@H](Nc5ccccc5)C(=O)N4C3)nc2-c2nccs2)cc1 [Compound 1506],< 10,10 to 100

Compound,IC50 (NS3/NS4 complexes) [nM],EC50 (hepatitis C replicon) [nM]
COc1ccc2c(O[C@@H]3C[C@H]4C(=O)N[C@]5(C(=O)NS(=O)(=O)C6CC6)C[C@H]5/C=C\CCCCN(c5ccccc5)C(=O)[C@@H]4C3)cc(-c3nc(C(C)C)cs3)nc2c1C [Compound 1601],< 10,> 100
CC(C)n1c(O[C@@H]2C[C@H]3C(=O)N[C@]4(C(=O)NS(=O)(=O)C5(C)CC5)C[C@H]4/C=C\CCCCC[C@H](NC(=O)OC(C)(C)C)C(=O)N3C2)nc2c(-c3csc(-c4ccccc4)n3)cccc21 [Compound 1701],< 10,10 to 100
CC(C)n1c(O[C@@H]2C[C@H]3C(=O)N[C@]4(C(=O)NS(=O)(=O)C5(C)CC5)C[C@H]4/C=C\CCCCC[C@H](NC(=O)OC(C)(C)C)C(=O)N3C2)nc2c(-c3csc(C4CC4)n3)cccc21 [Compound 1702],< 10,< 10
CC(C)n1c(O[C@@H]2C[C@H]3C(=O)N[C@]4(C(=O)NS(=O)(=O)C5(C)CC5)C[C@H]4/C=C\CCCCC[C@H](NC(=O)OC(C)(C)C)C(=O)N3C2)nc2c(-c3csc(-c4cc(F)cc(F)c4)n3)cccc21 [Compound 1703],< 10,10 to 100
CC(C)n1c(O[C@@H]2C[C@H]3C(=O)N[C@]4(C(=O)NS(=O)(=O)C5(C)CC5)C[C@H]4/C=C\CCCCC[C@H](NC(=O)OC(C)(C)C)C(=O)N3C2)nc2c(-c3csc(N4CCOCC4)n3)cccc21 [Compound 1704],< 10,< 10
CC(C)n1c(O[C@@H]2C[C@H]3C(=O)N[C@]4(C(=O)NS(=O)(=O)C5(C)CC5)C[C@H]4/C=C\CCCCC[C@H](NC(=O)OC(C)(C)C)C(=O)N3C2)nc2c(-c3cnc(N4CCCC4)cn3)cccc21 [Compound 1705],< 10,< 10
CC(C)n1c(O[C@@H]2C[C@H]3C(=O)N[C@]4(C(=O)NS(=O)(=O)C5(C)CC5)C[C@H]4/C=C\CCCCC[C@H](NC(=O)OC(C)(C)C)C(=O)N3C2)nc2c(-c3csc(N4CCCCC4)n3)cccc21 [Compound 1706],< 10,< 10
CC(C)n1c(O[C@@H]2C[C@H]3C(=O)N[C@]4(C(=O)NS(=O)(=O)C5(C)CC5)C[C@H]4/C=C\CCCCC[C@H](NC(=O)OC(C)(C)C)C(=O)N3C2)nc2c(-c3cncnc3)cccc21 [Compound 1707],< 10,< 10
CC(C)n1c(O[C@@H]2C[C@H]3C(=O)N[C@]4(C(=O)NS(=O)(=O)C5(C)CC5)C[C@H]4/C=C\CCCCC[C@H](NC(=O)OC(C)(C)C)C(=O)N3C2)nc2c(-c3nc(-c4ccccc4)cs3)cccc21 [Compound 1708],< 10,< 10
Cc1ccc(-c2csc(-c3cccc4c3nc(O[C@@H]3C[C@H]5C(=O)N[C@]6(C(=O)NS(=O)(=O)C7(C)CC7)C[C@H]6/C=C\CCCCC[C@H](NC(=O)OC(C)(C)C)C(=O)N5C3)n4C(C)C)n2)cc1 [Compound 1709],< 10,10 to 100
CC(C)n1c(O[C@@H]2C[C@H]3C(=O)N[C@]4(C(=O)NS(=O)(=O)C5(C)CC5)C[C@H]4/C=C\CCCCC[C@H](NC(=O)OC(C)(C)C)C(=O)N3C2)nc2c(-c3nc(-c4ccccc4F)cs3)cccc21 [Compound 1710],< 10,10 to 100
CC(C)n1c(O[C@@H]2C[C@H]3C(=O)N[C@]4(C(=O)NS(=O)(=O)C5(C)CC5)C[C@H]4/C=C\CCCCC[C@H](NC(=O)OC(C)(C)C)C(=O)N3C2)nc2c(-c3nc(-c4ccc(F)cc4)cs3)cccc21 [Compound 1711],< 10,< 10
Cc1ccccc1-c1csc(-c2cccc3c2nc(O[C@@H]2C[C@H]4C(=O)N[C@]5(C(=O)NS(=O)(=O)C6(C)CC6)C[C@H]5/C=C\CCCCC[C@H](NC(=O)OC(C)(C)C)C(=O)N4C2)n3C(C)C)n1 [Compound 1712],< 10,< 10
Cc1cccc(-c2csc(-c3cccc4c3nc(O[C@@H]3C[C@H]5C(=O)N[C@]6(C(=O)NS(=O)(=O)C7(C)CC7)C[C@H]6/C=C\CCCCC[C@H](NC(=O)OC(C)(C)C)C(=O)N5C3)n4C(C)C)n2)c1 [Compound 1713],< 10,10 to 100
CC(C)n1c(O[C@@H]2C[C@H]3C(=O)N[C@]4(C(=O)NS(=O)(=O)C5(C)CC5)C[C@H]4/C=C\CCCCC[C@H](NC(=O)OC(C)(C)C)C(=O)N3C2)nc2c(-c3nc(-c4ccccc4Cl)cs3)cccc21 [Compound 1714],< 10,10 to 100
COc1ccc(-c2csc(-c3cccc4c3nc(O[C@@H]3C[C@H]5C(=O)N[C@]6(C(=O)NS(=O)(=O)C7(C)CC7)C[C@H]6/C=C\CCCCC[C@H](NC(=O)OC(C)(C)C)C(=O)N5C3)n4C(C)C)n2)cc1 [Compound 1715],< 10,10 to 100
CC(C)n1c(O[C@@H]2C[C@H]3C(=O)N[C@]4(C(=O)NS(=O)(=O)C5(C)CC5)C[C@H]4/C=C\CCCCC[C@H](NC(=O)OC(C)(C)C)C(=O)N3C2)nc2c(-c3nc(-c4ccc(-c5ccccc5)cc4)cs3)cccc21 [Compound 1716],< 10,10 to 100
